This note sets out measurements from ChEMBL document CHEMBL3639097, “2-aryl imidazo[1,2-a]pyridine-3-acetamide derivatives, preparation methods and uses thereof” (2015).

Structures are written as SMILES.

The target in the experiment is Translocator protein (Rattus norvegicus, UniProt P16257). In words: Competitive Binding Assay: Competitive Binding Test of Drug to the Receptor (Rat Heart TSPO) and Radioligand (3H-PK11195): (1) tubes were placed in reaction condition of 30 C.(2) all tubes were added with 20 ug of receptor protein in order;(3) the test tubes were added in order with 20 uL of drugs in certain concentrations;(4) the non-specific binding tubes were added with 20 uL of non-tagged ligand (PK11195), the final concentration of the non-tagged ligand was 0.1 mM, pre-reacted for 30 min;(5) all tubes were added in order with 25 uL 3H-PK11195, the final concentration of the labeled ligand was 1.5 nM;(6) Tris-HCl Buffer pH7.4 was used to complement the reaction volumes of all tubes to reach 200 uL;(7) the reaction was performed under 30 C. reaction condition for 1 h;(8) Then samples were applied to 49-type glass fibre filter, vacuum suction filtered, then washed with 2 ml ice-cold Tris-HCl buffer solution (50 mM Tris-HCl buffer solution, 1 mM EDTA, 5 mM MgCl2, 1 mM PMSF, 0.1% NaN3.
As usually defined, the IC50 is the point on the concentration scale where inhibition reaches its midpoint. Usually Ki stands for the equilibrium dissociation constant of an inhibitor or competing ligand from its target. Higher therefore signals lower affinity. As to `CCN(Cc1ccccc1)C(=O)Cc1c(-c2ccc(Cl)cc2)nc2cc(C)ccn12`, the IC50 is 16.9 nM and affinity was put at a Ki of 7.17 nM.

Compound `CCN(Cc1ccccn1)C(=O)Cc1c(-c2ccc(Cl)c(Cl)c2)nc2cc(C)ccn12` showed a half-maximal inhibitory concentration (IC50) of 21.9 nM and a Ki of 9.34 nM.

In turn, `CCN(Cc1ccncc1)C(=O)Cc1c(-c2ccc(Cl)c(Cl)c2)nc2cc(C)ccn12` showed an IC50 of 26 nM and a Ki of 11.1 nM.

`COCCN(Cc1ccccn1)C(=O)Cc1c(-c2ccc(Cl)c(Cl)c2)nc2cc(C)ccn12` came in with a half-maximal inhibitory concentration (IC50) of 15.6 nM and a Ki of 6.66 nM.
